Data reported in US11633497B2, “Anti-c-Met antibody drug conjugates” (AbbVie Inc., priority 2021, dated 2023).
pEC50: −log10 of the molar value. Where two headings read alike, the source gives them in different places.

What was measured:
[1] = test system: Calu-6 cells (lung adenocarcinoma); experiment: Cell proliferation, CellTiter-Glo luminescence, Calu-6; format: cell-based; conditions: Homo sapiens
Method: The effect of TOP1i drugs on cell viability was assessed by monitoring ATP presence for metabolically active cells. Proliferation of Calu-6 cells (lung adenocarcinoma) and A375 cells (malignant melanoma) were quantified using CellTiter-Glo® luminescence.

[2] = test system: A375 cells (malignant melanoma); experiment: Cell proliferation, CellTiter-Glo luminescence, A375; format: cell-based; conditions: Homo sapiens, A-375, read-out: TOP1i Compound Potency EC50, A375
Excerpt: Proliferation of Calu-6 cells (lung adenocarcinoma) and A375 cells (malignant melanoma) were quantified using CellTiter-Glo® luminescence.

CC[C@@]1(O)C(=O)OCc2c1cc1n(c2=O)Cc2c-1nc1cc3c(cc1c2C12CC(N)(C1)C2)OCO3 [Example 1G, (7S)-14-(3-aminobicyclo[1.1.1]pentan-1-yl)-7-ethyl-7-hydroxy-2H,10H-[1,3]dioxolo[4,5-g]pyrano[3′,4′:6,7]indolizino[1,2-b]quinoline-8,11(7H,13H)-dione]
pEC50 ([1]; Calu-6, read-out: TOP1i Compound Potency EC50, Calu-6): 9.24 | pEC50 [2]: 9.30

CCc1c2c(nc3ccc(O)cc13)-c1cc3c(c(=O)n1C2)COC(=O)[C@]3(O)CC [SN-38, reference compound]
pEC50 ([1]; Calu-6 cell viability, CellTiter-Glo, read-out: TOP1i Compound Potency EC50, Calu-6): 8.18
